Laboratory results reported in patent publication US20250215029A1 (Recludix Pharma, Inc., priority 2022, published 2025).
Read-outs that look alike come from different tables or passages of the source.

Columns and labels:
pY705-STAT3 in PBMC = target: T1, pY705-STAT3 in PBMC (Homo sapiens, UniProt P40763); assay: MSD-pSTAT-PBMC Assay (pSTAT3, IL-6 stimulated); format: cell-based; conditions: PBMC, compound 3 hrs, then 10 ng/mL IL-6 for 10 min; Table 1114; read-out: pSTAT3
T1 construct: Cryopreserved Peripheral Blood Mononuclear Cells (PBMC) are from AllCells; host or cells: cryopreserved PBMC
In short: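 Inhibition of cytokine-induced STAT phosphorylation was measured in recovered human PBMC after 3 hrs compound exposure and a 10 min IL-4 (1 ng/mL) or IL-6 (10 ng/mL) challenge. MSD detection of pY641-STAT6 or pY705-STAT3 yielded IC50 values.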

pY641-STAT6 in PBMC = target: T2, pY641-STAT6 in PBMC (Homo sapiens, UniProt P42226); assay: MSD-pSTAT-PBMC Assay (pSTAT6, IL-4 stimulated); format: cell-based; conditions: compound 3 hrs, then 1 ng/mL IL-4 for 10 min, Table 1114
T2 construct: Cryopreserved Peripheral Blood Mononuclear Cells (PBMC) are from AllCells; host or cells: cryopreserved PBMC
T2 sequence (P42226 1-847): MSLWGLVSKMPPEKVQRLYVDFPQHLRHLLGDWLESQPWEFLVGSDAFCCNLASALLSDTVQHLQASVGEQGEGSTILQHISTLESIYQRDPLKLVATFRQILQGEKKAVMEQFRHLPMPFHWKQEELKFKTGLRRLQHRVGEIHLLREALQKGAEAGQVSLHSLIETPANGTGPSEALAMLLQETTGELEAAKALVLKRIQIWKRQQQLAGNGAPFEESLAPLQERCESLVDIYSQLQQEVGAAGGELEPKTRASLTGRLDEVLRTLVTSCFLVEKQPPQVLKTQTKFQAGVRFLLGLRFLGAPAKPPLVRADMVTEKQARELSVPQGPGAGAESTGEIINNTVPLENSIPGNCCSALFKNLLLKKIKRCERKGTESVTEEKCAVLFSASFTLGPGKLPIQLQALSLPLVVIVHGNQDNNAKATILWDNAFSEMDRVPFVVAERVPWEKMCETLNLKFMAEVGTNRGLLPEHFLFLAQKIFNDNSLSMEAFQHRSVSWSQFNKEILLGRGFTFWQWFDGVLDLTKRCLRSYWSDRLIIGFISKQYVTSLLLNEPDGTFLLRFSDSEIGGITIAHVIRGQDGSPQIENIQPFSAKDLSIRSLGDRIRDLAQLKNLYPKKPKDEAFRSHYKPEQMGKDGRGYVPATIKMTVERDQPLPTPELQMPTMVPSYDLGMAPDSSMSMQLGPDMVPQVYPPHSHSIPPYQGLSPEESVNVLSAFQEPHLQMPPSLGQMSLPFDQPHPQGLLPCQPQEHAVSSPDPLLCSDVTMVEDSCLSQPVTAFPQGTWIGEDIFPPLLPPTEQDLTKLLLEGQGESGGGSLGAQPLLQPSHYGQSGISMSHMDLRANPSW
In short: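 MSD electrochemiluminescence read-out: total STAT captured, probed with anti-pY641-STAT6 or anti-pY705-STAT3. Human PBMC, 3 h compound pretreatment, 10 min stimulation (IL-4 1 ng/mL or IL-6 10 ng/mL). Unstimulated signal subtracted, DMSO-normalized, variable-slope IC50.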

T1 sequence (P40763 whole entry): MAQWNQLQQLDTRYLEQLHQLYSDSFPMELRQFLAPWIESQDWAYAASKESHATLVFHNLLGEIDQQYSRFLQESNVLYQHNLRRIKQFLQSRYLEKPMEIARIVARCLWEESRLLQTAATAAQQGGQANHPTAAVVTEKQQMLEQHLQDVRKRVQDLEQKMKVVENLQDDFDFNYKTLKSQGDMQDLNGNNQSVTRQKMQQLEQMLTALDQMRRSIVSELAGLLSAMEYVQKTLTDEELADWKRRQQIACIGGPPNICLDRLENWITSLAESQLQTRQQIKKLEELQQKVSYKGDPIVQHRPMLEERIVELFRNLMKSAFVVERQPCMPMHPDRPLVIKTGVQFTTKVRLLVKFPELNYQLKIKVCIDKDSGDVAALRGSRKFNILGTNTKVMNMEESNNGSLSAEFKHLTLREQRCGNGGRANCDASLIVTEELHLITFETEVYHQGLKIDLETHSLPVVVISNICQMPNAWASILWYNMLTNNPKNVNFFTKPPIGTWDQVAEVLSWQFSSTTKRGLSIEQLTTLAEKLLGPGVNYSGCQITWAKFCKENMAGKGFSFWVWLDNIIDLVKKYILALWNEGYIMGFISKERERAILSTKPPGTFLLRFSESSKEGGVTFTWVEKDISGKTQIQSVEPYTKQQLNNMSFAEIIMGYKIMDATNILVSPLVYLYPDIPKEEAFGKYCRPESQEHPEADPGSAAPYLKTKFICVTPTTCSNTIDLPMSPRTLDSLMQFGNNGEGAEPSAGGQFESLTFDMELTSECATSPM

Row | SMILES | IC50 (pY705-STAT3 in PBMC) | IC50 (pY641-STAT6 in PBMC; PBMC, read-out: pSTAT6) | IC50 (pY641-STAT6 in PBMC; pSTAT6, PBMC)
1 | CC(C)CC(=O)SCCOP(=O)(OCCSC(=O)CC(C)C)C(F)(F)c1ccc2ccc(C(=O)N[C@H]3CCCCC[C@H]4[C@H](O)C[C@@H](C(=O)N5CC(C#N)C(c6cc[nH]c(=O)c6)C5)N4C3=O)cc2c1 (single isomer, unassigned) [Compound 167, S,S′-(((((7-(((1R,3S,6S,11aS)-3-((3S,4R or 3R,4S)-3-cyano-4-(2-oxo-1,2-dihydropyridin-4-yl)pyrrolidine-1-carbonyl)-1-hydroxy-5-oxodecahydropyrrolo [1,2-a]azocin-6-yl)carbamoyl)naphthalen-2-yl)difluoromethyl)phosphoryl)bis(oxy))bis(ethane-2,1-diyl)) bis(3-methylbutane thioate)] | > 3000 nM | 100 to 1000 nM | 
2 | CC(C)CC(=O)SCCOP(=O)(OCCSC(=O)CC(C)C)C(F)(F)c1ccc2ccc(C(=O)N[C@H]3CCCC[C@H]4CC[C@@H](C(=O)N5C[C@@H](C#N)[C@H](c6cc[nH]c(=O)c6)C5)N4C3=O)cc2c1 (single isomer, unassigned) [Compound 168, S,S′-(((((7-(((3S,6S,10aS)-3-((3S,4R or 3R,4S)-3-cyano-4-(2-oxo-1,2-dihydropyridin-4-yl)pyrrolidine-1-carbonyl)-5-oxodecahydropyrrolo [1,2-a]azocin-6-yl)carbamoyl)naphthalen-2-yl)difluoromethyl)phosphoryl)bis(oxy))bis(ethane-2,1-diyl)) bis(3-methylbutane thioate)] | 100 to 1000 nM | < 100 nM | 
3 | CC(C)(C)C(=O)OCOP(=O)(OCOC(=O)C(C)(C)C)[C@@H](F)c1ccc2sc(C(=O)N[C@H]3CCCC[C@H]4CC[C@@H](C(=O)N5C[C@@H](C#N)[C@H](c6ccccc6)C5)N4C3=O)cc2c1 (single isomer, unassigned) [Compound 183, ((((R)- or (S)-(2-(((3S,6S,10aS)-3-((3S,4R or 3R,4S)-3-cyano-4-phenylpyrrolidine-1-carbonyl)-5-oxodecahydropyrrolo[1,2-a]azocin-6-yl)carbamoyl)benzo[b]thiophen-5-yl)fluoromethyl)phosphoryl)bis(oxy))bis(methylene)bis(2,2-dimethylpropanoate))] | 100 to 1000 nM | < 100 nM | 
4 | CC(C)(C)C(=O)OCOP(=O)(OCOC(=O)C(C)(C)C)[C@@H](F)c1ccc2sc(C(=O)N[C@H]3CCCC[C@H]4CC[C@@H](C(=O)N5C[C@@H](C#N)[C@H](c6ccccc6)C5)N4C3=O)cc2c1 (single isomer, unassigned) [Compound 184, ((((S)- or (R)-(2-(((3S,6S, 10aS)-3-((3S,4R or 3R,4S)-3-cyano-4-phenyl-pyrrolidine-1-carbonyl)-5-oxodeca-hydropyrrolo [1,2-a]azocin-6-yl)carbamoyl)benzo[b]thiophen-5-yl)fluoromethyl)phosphoryl)bis(oxy)) bis(methylene) bis(2,2-dimethyl-propanoate)] | 100 to 1000 nM | < 100 nM | 
5 | CC(C)(C)C(=O)OCOP(=O)(OCOC(=O)C(C)(C)C)C(F)(F)c1ccc2sc(C(=O)N[C@H]3C[C@@H](O)CC[C@H]4CC[C@@H](C(=O)N5C[C@H](c6ccccc6)[C@@H](C#N)C5)N4C3=O)cc2c1 (single isomer, unassigned) [Compound 185, ((((2-(((3S,6S,8S, 10aR)-3-((3R,4S or 3S,4R)-3-cyano-4-phenyl-pyrrolidine-1-carbonyl)-8-hydroxy-5-oxodeca-hydropyrrolo [1,2-a]azocin-6-yl)carbamoyl)benzo[b]thiophen-5-yl)difluoro-methyl)phos-phoryl)bis(oxy)) bis(methylene) bis(2,2-dimethyl-propanoate)] | 100 to 1000 nM | < 100 nM | 
6 | CC(C)(C)C(=O)OCOP(=O)(OCOC(=O)C(C)(C)C)C(F)(F)c1ccc2ccc(C(=O)N[C@H]3CCCC[C@H]4CC[C@@H](C(=O)N5C[C@@H](C#N)[C@]6(C5)C(=O)Nc5ccccc56)N4C3=O)cc2c1 (single isomer, unassigned) [Compound 193] | < 100 nM | < 100 nM | 
7 | CC(C)OC(=O)[C@H](C)NP(=O)(Cc1ccc2sc(C(=O)N[C@H]3CCCC[C@H]4CC[C@@H](C(=O)N5C[C@H](c6cc[nH]c(=O)c6)[C@@H](C#N)C5)N4C3=O)cc2c1)Oc1ccccc1 (single isomer, unassigned) [Compound 197, isopropyl (((2-(((3S,6S,10aS)-3-((3R,4S or 3S,4R)-3-cyano-4-(2-oxo-1,2-dihydro-pyridin-4-yl)pyrrolidine-1-carbonyl)-5-oxodecahydro-pyrrolo[1,2-a]azocin-6-yl)carbamoyl)benzo[b]thiophen-5-yl)methyl) (phenoxy)phosphoryl)-L-alaninate] | > 3000 nM |  | > 3000 nM
8 | CC(C)OC(=O)[C@H](C)NP(=O)(Oc1ccccc1)C(F)c1ccc2sc(C(=O)N[C@H]3CCCC[C@H]4CC[C@@H](C(=O)N5C[C@H](c6cc[nH]c(=O)c6)[C@@H](C#N)C5)N4C3=O)cc2c1 (single isomer, unassigned) [Compound 198, isopropyl (((2-(((3S,6S,10aS)-3-((3R,4S or 3S,4R)-3-cyano-4-(2-oxo-1,2-dihydropyridin-4-yl)pyrrolidine-1-carbonyl)-5-oxodecahydro-pyrrolo[1,2-a]azocin-6-yl)carbamoyl)benzo[b]thiophen-5-yl)fluoro-methyl) (phenoxy)phosphoryl)-L-alaninate] | > 3000 nM |  | > 3000 nM
9 | CC(C)(CO)C(=O)SCCOP(=O)(Cc1ccc2sc(C(=O)NC3CCCCC4CCC(C(=O)N5CC(C#N)C(c6ccccc6)C5)N4C3=O)cc2c1)OCCSC(=O)C(C)(C)CO (single isomer, unassigned) [Compound 199, S,S′-(((((2-(((3S,6S,10aS)-3-((3S,4R or 3R,4S)-3-cyano-4-phenylpyrrolidine-1-carbonyl)-5-oxodecahydropyrrolo[1,2-a]azocin-6-yl)carbamoyl)benzo[b]thiophen-5-yl)methyl)phosphoryl)bis(oxy))bis(ethane-2,1-diyl))bis(3-hydroxy-2,2-dimethylpropanethioate)trifluoroacetate] | > 3000 nM | > 3000 nM | 
10 | CC(C)(CO)C(=O)SCCOP(=O)(OCCSC(=O)C(C)(C)CO)C(F)(F)c1ccc2sc(C(=O)N[C@H]3CCCC[C@H]4CC[C@@H](C(=O)N5C[C@@H](C#N)[C@H](c6ccccc6)C5)N4C3=O)cc2c1 (single isomer, unassigned) [Compound 200, S,S′-(((((2-(((3S,6S,10a S)-3-((3S,4R or 3R,4S)-3-cyano-4-phenylpyrrolidine-1-carbonyl)-5-oxodecahydro-pyrrolo [1,2-a]azocin-6-yl)carbamoyl)benzo[b]thiophen-5-yl)difluoromethyl)phosphoryl)bis(oxy))bis(ethane-2,1-diyl)) bis(3-hydroxy-2,2-dimethyl-propanethioate)] | 1000 to 3000 nM | > 3000 nM | 
11 | CC(C)(O)CC(=O)SCCOP(=O)(OCCSC(=O)CC(C)(C)O)C(F)(F)c1ccc2sc(C(=O)N[C@H]3CCCC[C@H]4CC[C@@H](C(=O)N5C[C@@H](C#N)[C@H](c6ccccc6)C5)N4C3=O)cc2c1 (single isomer, unassigned) [Compound 202, S,S′-(((((2-(((3S,6S,10a S)-3-((3S,4R or 3R,4S)-3-cyano-4-phenylpyrrolidine-1-carbonyl)-5-oxodecahydro-pyrrolo [1,2-a]azocin-6-yl)carbamoyl)benzo [b]thiophen-5-yl)difluoromethyl)phosphoryl)bis(oxy))bis(ethane-2,1-diyl)) bis(3-hydroxy-3-methylbutane thioate)] | > 3000 nM | 1000 to 3000 nM | 
